In patent publication US20230203098A1, “HUMAN TRANSFERRIN RECEPTOR BINDING PEPTIDE” (priority 2020, published 2023):
Like-named read-outs stand apart in the source and are kept apart here. Blank lines part the entries; values can stand above or below the compound they belong to. Where a SMILES comes first, the peptide text is derived from it. Bridges are numbered along the chain shown (N, C = ends). [ ]: non-standard residue; d: D form. NMePhe(3-Cl) = CN[C@@H](Cc1cccc(Cl)c1)C(=O)O; NMeW = CN[C@@H](Cc1c[nH]c2ccccc12)C(=O)O; NMeY = CN[C@@H](Cc1ccc(O)cc1)C(=O)O; NMeF = CN[C@@H](Cc1ccccc1)C(=O)O; PEG4 = NCCOCCOCCOCCOCCC(=O)O; Nva = CCC[C@H](N)C(=O)O

Target: transferrin receptor (hTfR) (Homo sapiens, UniProt P02786)
Test: Intermolecular interaction evaluation test between transferrin receptor (hTfR) and peptide by surface plasmon resonance (SPR)
Assay type: binding
In short: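 hTfR captured on Ni-NTA chip then amine-coupled; peptides run single-cycle kinetics at 5–100 nM in 10 mM HEPES pH 8.0, 150 mM NaCl, 0.05% Tween 20, 0.1% BSA, 1.0% DMSO. KD from least-squares curve fitting of sensorgrams.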

[1] = surface plasmon resonance, hTfR, read-out: KD value for hTfR by SPR (class symbol)
[2] = surface plasmon resonance, peptide vs hTfR, read-out: KD value, hTfR binding by SPR (class symbol)
[3] = binding to hTfR by SPR, Table 2 peptides, read-out: KD value (SPR) class

Sequence of transferrin receptor (hTfR) (P02786 whole entry): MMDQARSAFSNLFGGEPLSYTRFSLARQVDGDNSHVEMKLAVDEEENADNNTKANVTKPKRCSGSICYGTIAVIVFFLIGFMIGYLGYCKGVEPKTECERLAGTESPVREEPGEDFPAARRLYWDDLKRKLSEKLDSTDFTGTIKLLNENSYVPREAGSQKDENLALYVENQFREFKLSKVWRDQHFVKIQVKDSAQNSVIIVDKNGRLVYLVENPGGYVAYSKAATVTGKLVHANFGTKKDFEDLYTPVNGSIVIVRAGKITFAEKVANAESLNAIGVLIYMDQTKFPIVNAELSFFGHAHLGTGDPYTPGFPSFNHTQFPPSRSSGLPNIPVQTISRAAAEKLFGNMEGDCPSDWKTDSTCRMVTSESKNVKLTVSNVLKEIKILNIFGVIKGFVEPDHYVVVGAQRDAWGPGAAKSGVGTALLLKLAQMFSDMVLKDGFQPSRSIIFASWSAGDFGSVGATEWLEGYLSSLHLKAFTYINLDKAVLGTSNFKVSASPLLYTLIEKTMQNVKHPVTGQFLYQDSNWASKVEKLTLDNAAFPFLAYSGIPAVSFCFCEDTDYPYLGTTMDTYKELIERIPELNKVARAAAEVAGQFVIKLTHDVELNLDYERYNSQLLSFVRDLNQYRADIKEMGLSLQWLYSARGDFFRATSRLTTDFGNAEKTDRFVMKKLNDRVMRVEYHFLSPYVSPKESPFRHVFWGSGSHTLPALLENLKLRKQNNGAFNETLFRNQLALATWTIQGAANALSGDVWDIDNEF

Kd (SPR, linker and payload (FITC, VivoTag) conjugates, read-out: KD): 1 to 100 nM
SMILES: CC[C@H](C)[C@@H]1NC(=O)[C@H](Cc2ccc(O)cc2)NC(=O)[C@H](Cc2ccc(O)cc2)NC(=O)[C@H](CC(N)=O)NC(=O)[C@H](Cc2c[nH]c3ccccc23)NC(=O)[C@H](C(C)C)NC(=O)[C@H](Cc2ccccc2)NC(=O)[C@H](C(C)C)NC(=O)[C@H](C)N(C)C(=O)CSC[C@@H](C(=O)NCCOCCOCCOCCOCCC(=O)N[C@@H](CNC(=O)c2ccc(-c3c4ccc(=O)cc-4oc4cc(O)ccc34)c(C(=O)O)c2)C(N)=O)NC(=O)[C@H](Cc2ccc(O)cc2)N(C)C(=O)[C@H](Cc2ccc(O)cc2)NC(=O)[C@H](CCCNC(=N)N)NC(=O)[C@H](CCCNC(=N)N)NC(=O)[C@H]([C@@H](C)CC)NC1=O [compound 161]

Kd [1]: 1 to 100 nM
SMILES: CC[C@H](C)[C@@H]1NC(=O)[C@H](Cc2ccc(OC)cc2)NC(=O)[C@H](Cc2ccc(O)cc2)NC(=O)[C@H](CC(N)=O)NC(=O)[C@H](Cc2c[nH]c3ccccc23)N(C)C(=O)[C@H](C(C)C)NC(=O)[C@H](Cc2cccc(Cl)c2)N(C)C(=O)[C@H](C(C)C)NC(=O)[C@H](C)NC(=O)CSC[C@@H](C(=O)NCC(=O)NCC(=O)NCC(=O)NCC(=O)N[C@@H](CO)C(=O)N[C@@H](CO)C(=O)N[C@@H](CS)C(N)=O)NC(=O)[C@H](Cc2ccc(O)cc2)N(C)C(=O)[C@H](Cc2ccccc2)NC(=O)[C@@H](CCCNC(=N)N)NC(=O)[C@H](CCCCN)NC(=O)[C@H]([C@@H](C)CC)NC1=O [compound 376]

Kd [2]: 1 to 100 nM
SMILES: CCC[C@@H]1NC(=O)[C@H]([C@@H](C)CC)NC(=O)[C@H](Cc2ccc(OC)cc2)NC(=O)[C@H](Cc2ccc(O)cc2)NC(=O)[C@H](CC(N)=O)NC(=O)[C@H](Cc2c[nH]c3ccccc23)N(C)C(=O)[C@H](C(C)C)NC(=O)[C@H](Cc2cccc(Cl)c2)N(C)C(=O)[C@H](C(C)C)NC(=O)[C@H](C)NC(=O)CSC[C@@H](C(=O)NCCOCCOCCOCCOCCC(N)=O)NC(=O)[C@H](Cc2ccc(O)cc2)N(C)C(=O)[C@H](Cc2ccccc2)NC(=O)[C@@H](CCCNC(=N)N)NC(=O)[C@H](CCCNC(=N)N)NC1=O [compound 326] ({CH2CO}-AV[NMePhe(3-Cl)]V[NMeW]NYY(Me)I[Nva]R[dR]F[NMeY]C[PEG4]-NH2; thioether N-15)

Kd [2]: 1 to 100 nM
SMILES: CC[C@H](C)[C@@H]1NC(=O)[C@H](Cc2ccc(OCCN)cc2)NC(=O)[C@H](Cc2ccc(O)cc2)NC(=O)[C@H](CC(N)=O)NC(=O)[C@H](Cc2c[nH]c3ccccc23)N(C)C(=O)[C@H](C(C)C)NC(=O)[C@H](Cc2cccc(Cl)c2)N(C)C(=O)[C@H](C(C)C)NC(=O)[C@H](C)NC(=O)CSC[C@@H](C(N)=O)NC(=O)[C@H](Cc2ccc(O)cc2)N(C)C(=O)[C@H](Cc2ccccc2)NC(=O)[C@@H](CCCNC(=N)N)NC(=O)[C@H](CCCNC(=N)N)NC(=O)[C@H]([C@@H](C)CC)NC1=O [compound 321]

Kd [1]: 1 to 100 nM
SMILES: CC[C@H](C)[C@@H]1NC(=O)[C@H](Cc2ccc(OC)cc2)NC(=O)[C@H](Cc2ccc(O)cc2)NC(=O)[C@H](CC(N)=O)NC(=O)[C@H](Cc2c[nH]c3ccccc23)N(C)C(=O)[C@H](C(C)C)NC(=O)[C@H](Cc2cccc(Cl)c2)N(C)C(=O)[C@H](C(C)C)NC(=O)[C@H](C)NC(=O)CSC[C@@H](C(=O)NCC(=O)NCC(=O)NCC(=O)NCC(=O)N[C@@H](CO)C(=O)N[C@@H](CO)C(=O)N[C@@H](CS)C(N)=O)NC(=O)[C@H](Cc2ccc(O)cc2)N(C)C(=O)[C@H](Cc2ccccc2)NC(=O)[C@@H](CCCCN)NC(=O)[C@H](CCCNC(=N)N)NC(=O)[C@H]([C@@H](C)CC)NC1=O [compound 407]

Kd (SPR, hTfR, class symbols A-D, read-out: KD (column without head, continuation of the table series)): 1 to 100 nM
SMILES: CC[C@H](C)[C@@H]1NC(=O)[C@H](Cc2ccc(O)cc2)NC(=O)[C@H](Cc2ccc(O)cc2)NC(=O)[C@H](CC(N)=O)NC(=O)[C@H](Cc2c[nH]c3ccccc23)NC(=O)[C@H](C(C)C)NC(=O)[C@H](Cc2ccccc2)N(C)C(=O)[C@H](C(C)C)NC(=O)[C@H](C)NC(=O)CSC[C@@H](C(=O)NCC(=O)NCCOCCOCCOCCOCCOCCOCCOCCOCCOCCOCCOCCOCCC(=O)N[C@@H](CCCCN=[N+]=[N-])C(N)=O)NC(=O)[C@H](Cc2ccc(O)cc2)N(C)C(=O)[C@H](Cc2ccc(O)cc2)NC(=O)[C@H](CCCNC(=N)N)NC(=O)[C@H](CCCNC(=N)N)NC(=O)[C@H]([C@@H](C)CC)NC1=O [compound 501]

Kd [1]: 1 to 100 nM
SMILES: CC[C@H](C)[C@@H]1NC(=O)[C@H](Cc2ccc(OC)cc2)NC(=O)[C@H](Cc2ccc(O)cc2)NC(=O)[C@H](CC(N)=O)NC(=O)[C@H](Cc2c[nH]c3ccccc23)N(C)C(=O)[C@H](C(C)C)NC(=O)[C@H](Cc2cccc(Cl)c2)N(C)C(=O)[C@H](C(C)C)NC(=O)[C@H](C)NC(=O)CSC[C@@H](C(=O)N[C@H](CCC(=O)O)C(=O)NCC(=O)NCC(=O)NCC(=O)N[C@@H](CO)C(=O)N[C@@H](CO)C(=O)N[C@@H](CS)C(N)=O)NC(=O)[C@H](Cc2ccc(O)cc2)N(C)C(=O)[C@H](Cc2ccccc2)NC(=O)[C@@H](CCCNC(=N)N)NC(=O)[C@H](CCCNC(=N)N)NC(=O)[C@H]([C@@H](C)CC)NC1=O [compound 402] ({CH2CO}-AV[NMePhe(3-Cl)]V[NMeW]NYY(Me)IIR[dR]F[NMeY]C[dE]GGGSSC-NH2; thioether N-15)

Kd [2]: 1 to 100 nM
SMILES: CC[C@H](C)[C@@H]1NC(=O)[C@H](Cc2ccc(O)cc2)NC(=O)[C@H](Cc2ccc(O)cc2)NC(=O)[C@H](CC(N)=O)NC(=O)[C@H](Cc2c[nH]c3ccccc23)NC(=O)[C@H](C(C)C)NC(=O)[C@H](Cc2ccccc2)N(C)C(=O)[C@H](C(C)C)NC(=O)[C@H](C)NC(=O)CSC[C@@H](C(=O)N[C@H](CCC(=O)O)C(N)=O)NC(=O)[C@H](Cc2ccc(O)cc2)N(C)C(=O)[C@H](Cc2ccc(O)cc2)NC(=O)[C@H](CCCNC(=N)N)NC(=O)[C@H](C)NC(=O)[C@H]([C@@H](C)CC)NC1=O [compound 291] ({CH2CO}-AV[NMeF]VWNYYIIARY[NMeY]C[dE]-NH2; thioether N-15)

Kd [3]: 1 to 100 nM
SMILES: CC[C@H](C)[C@@H]1NC(=O)[C@H](Cc2ccc(O)cc2)NC(=O)[C@H](Cc2ccc(O)cc2)NC(=O)[C@H](CC(N)=O)NC(=O)[C@H](Cc2c[nH]c3ccccc23)NC(=O)[C@H](C(C)C)NC(=O)[C@H](Cc2ccccc2)NC(=O)[C@H](C(C)C)NC(=O)[C@H](C)NC(=O)CSC[C@@H](C(N)=O)NC(=O)[C@H](Cc2ccc(O)cc2)N(C)C(=O)[C@H](Cc2ccc(O)cc2)NC(=O)[C@H](CCCNC(=N)N)NC(=O)[C@H](C)NC(=O)[C@H]([C@@H](C)CC)NC1=O [compound 253]

Kd [3]: 1 to 100 nM
SMILES: CC[C@H](C)[C@@H]1NC(=O)[C@H](Cc2ccc(O)cc2)NC(=O)[C@H](Cc2ccc(O)cc2)NC(=O)[C@H](CC(N)=O)NC(=O)[C@H](Cc2c[nH]c3ccccc23)NC(=O)[C@H](C(C)C)NC(=O)[C@H](Cc2ccccc2)NC(=O)[C@H](C(C)C)NC(=O)[C@H](C)NC(=O)CSC[C@@H](C(N)=O)NC(=O)[C@H](Cc2ccc(O)cc2)N(C)C(=O)[C@H](Cc2ccc(O)cc2)NC(=O)[C@H](CCCNC(=N)N)NC(=O)[C@H](CCCCN)N(C)C(=O)[C@H]([C@@H](C)CC)NC1=O [compound 254]

Kd [1]: 1 to 100 nM
SMILES: CC[C@H](C)[C@@H]1NC(=O)[C@H](Cc2ccc(OC)cc2)NC(=O)[C@H](Cc2ccc(O)cc2)NC(=O)[C@H](CC(N)=O)NC(=O)[C@H](Cc2c[nH]c3ccccc23)N(C)C(=O)[C@H](C(C)C)NC(=O)[C@H](Cc2cccc(Cl)c2)N(C)C(=O)[C@H](C(C)C)NC(=O)[C@H](C)NC(=O)CSC[C@@H](C(N)=O)NC(=O)[C@H](Cc2ccc(O)cc2)N(C)C(=O)[C@H](Cc2ccccc2)NC(=O)[C@@H](CCCNC(=N)N)NC(=O)C2(CCN(C)CC2)NC(=O)[C@H]([C@@H](C)CC)NC1=O [compound 364]

Kd (SPR, hTfR No. 894 variants with PEG12c linker (Table 2), read-out: KD): 1 to 100 nM
SMILES: CC[C@H](C)[C@@H]1NC(=O)[C@H](Cc2ccc(O)cc2)NC(=O)[C@H](Cc2ccc(O)cc2)NC(=O)[C@H](CC(N)=O)NC(=O)[C@H](Cc2c[nH]c3ccccc23)NC(=O)[C@H](C(C)C)NC(=O)[C@H](Cc2ccccc2)N(C)C(=O)[C@H](C(C)C)NC(=O)[C@H](C)NC(=O)CSC[C@@H](C(=O)NCCOCCOCCOCCOCCOCCOCCOCCOCCOCCOCCOCCOCCC(N)=O)NC(=O)[C@H](Cc2ccc(O)cc2)N(C)C(=O)[C@H](Cc2ccc(O)cc2)NC(=O)[C@H](CCCNC(=N)N)NC(=O)[C@H](CCCNC(=N)N)N(C)C(=O)[C@H]([C@@H](C)CC)NC1=O [compound 112]

Kd (hTfR binding by SPR, hTfR No. 894 variant peptides, linker-added peptides and payload conjugates (Table 2), read-out: KD value obtained from the SPR measurement): 1 to 100 nM
SMILES: CC[C@H](C)[C@@H]1NC(=O)[C@H](Cc2ccc(O)cc2)NC(=O)[C@H](Cc2ccc(O)cc2)NC(=O)[C@H](CC(N)=O)NC(=O)[C@H](Cc2c[nH]c3ccccc23)NC(=O)[C@H](C(C)C)NC(=O)[C@H](Cc2ccccc2)N(C)C(=O)[C@H](C(C)C)NC(=O)[C@H](C)NC(=O)CSC[C@@H](C(=O)NCC(=O)NCC(=O)N[C@@H](CCCCNC(=O)C2CCC(CN3C(=O)C=CC3=O)CC2)C(N)=O)NC(=O)[C@H](Cc2ccc(O)cc2)N(C)C(=O)[C@H](Cc2ccc(O)cc2)NC(=O)[C@H](CCCNC(=N)N)NC(=O)[C@H](CCCNC(=N)N)NC(=O)[C@H]([C@@H](C)CC)NC1=O (some centres unmarked) [compound 195]

Kd [1]: 1 to 100 nM
SMILES: CC[C@H](C)[C@@H]1NC(=O)[C@H](Cc2ccc(OC)cc2)NC(=O)[C@H](Cc2ccc(O)cc2)NC(=O)[C@H](CC(N)=O)NC(=O)[C@H](Cc2c[nH]c3ccccc23)N(C)C(=O)[C@H](C(C)C)NC(=O)[C@H](Cc2cccc(Cl)c2)N(C)C(=O)[C@H](C(C)C)NC(=O)[C@H](C)NC(=O)CSC[C@@H](C(N)=O)NC(=O)[C@H](Cc2ccc(O)cc2)N(C)C(=O)[C@H](Cc2ccccc2)NC(=O)[C@@H](CCCNC(=N)N)NC(=O)[C@H](CCCCN)N(C)C(=O)[C@H]([C@@H](C)CC)NC1=O [compound 377]
